Laboratory results: patent publication US9271978B2 (Zenith Epigenetics Corp., priority 2012, dated 2016)

How the values were obtained:
Set-up in all cases: key: Active: Compounds with an IC50 value less than 30 μM were deemed to be active.; Not Active: Compounds with an IC50 value less than 30 μM were deemed to be active
[1] = biological target: T1, second bromodomain of Brd2 (BRD2(2)) (Homo sapiens, UniProt P25440); test: Inhibition of tetra-acetylated histone H4 binding to Brd2 bromodomain 2 (TR-FRET); conditions: tetra-acetylated histone H4 peptide, active = IC50 <30 μM
T1 construct: made in house; host or cells: E. coli BL21 (DE3)
T1 sequence (P25440 344-453 limits assumed): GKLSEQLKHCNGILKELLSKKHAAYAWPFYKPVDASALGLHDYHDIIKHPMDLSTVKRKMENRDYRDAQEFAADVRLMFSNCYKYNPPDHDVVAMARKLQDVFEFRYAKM
Outline: (§1)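 IC50 values come from dose-response curves of the 665 nm to 620 nm TR-FRET signal decrease, measured after 2 h at room temperature. Reactions contained 200 nM E. coli-expressed His-tagged bromodomain, 25-50 nM biotinylated tetra-acetylated H4 peptide, Eu-streptavidin plus XL665 anti-His antibody, with 30 mM HEPES pH 7.4, 320 mM KF and 0.2% DMSO.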

[2] = tested on: human AML MV-4-11 (CRL-9591) cells; test: Inhibition of cell proliferation in MV4-11 cells; assay type: cell-based; conditions: human AML MV-4-11 cells, 72 h; active = IC50 <30 μM
Protocol: MV4-11 cells: 96-well plates were seeded with 5×10^4 cells per well of exponentially growing human AML MV-4-11 (CRL-9591) cells and immediately treated with two-fold dilutions of test compounds, ranging from 30 μM to 0.2 μM. Triplicate wells were used for each concentration, as well as a media only and three DMSO control wells. The cells and compounds were incubated at 37° C., 5% CO2 for 72 h before adding 20 μL of the CellTiter Aqueous One Solution (Promega) to each well and incubating at 37° C., 5% CO2 for an additional 3-4 h. The absorbance was taken at 490 nm in a spectrophotometer and the percentage of proliferation relative to DMSO-treated cells was calculated after correction from the blank well. IC50 were calculated using the GraphPad Prism software.

hIL-6 mRNA = test: Inhibition of hIL-6 mRNA transcription in U937 cells; assay type: cell-based, human; conditions: LPS stimulation, active = IC50 <30 μM
Protocol: In this example, hIL-6 mRNA in tissue culture cells was quantitated to measure the transcriptional inhibition of hIL-6 when treated with a compound of the present disclosure.
A human leukemic monocyte lymphoma cell line (U937) was plated (3.2×10^4 cells per well) in a 96-well plate in […] RPMI-1640 containing 10% FBS and penicillin/streptomycin, and differentiated into macrophages for 3 days in 60 ng/mL PMA ([…]) at 37° C. in 5% CO2 prior to the addition of the compound of interest. The cells were pretreated for 1 h with the test compound prior to stimulation with 1 ug/mL lipopolysaccharide from Escherichia coli. The cells were incubated at 37° C. for 3 h before the cells were harvested. At time of harvest, the spent media was removed from the cells and the cells were rinsed in […] PBS. Cell lysis solution (70 μL) was added the cells in each well and incubated for 5-10 min at room temperature, to allow for complete cell lysis and detachment. mRNA was then prepared using the “mRNA Catcher PLUS plate” (Invitrogen), according to the protocol supplied. After the last wash, as much wash buffer as possible was aspirated without allowing the wells to dry. Elution buffer (E3, 70 μL) was then added to each well. mRNA was then eluted by incubating the mRNA Catcher PLUS plate with Elution Buffer for 5 min at 68° C. and then immediately placing the plate on ice.
The eluted mRNA isolated was then used in a one-step quantitative real-time PCR reaction, using components of the Ultra Sense Kit together with Applied Biosystems primer-probe mixes. Real-time PCR data was analyzed, normalizing the Ct values for hIL-6 to an internal control, prior to determining the fold induction of each unknown sample, relative to the control.

c-myc = test: Inhibition of c-myc expression in MV4-11 cells (mRNA, real-time PCR); assay type: cell-based; conditions: Human AML MV4-11 cells, 3 h incubation
Protocol: MV4-11 cells (2.5×10^4 cells) were plated in 96 well U-bottom plates with test compound or DMSO (0.1%), and incubated for 3 h at 37° C. Cells were then harvested by centrifugation, lysed, and mRNA was isolated using the mRNA catcher plus kit (Invitrogen). Reverse transcription of the mRNA and duplex amplification of the c-myc and cyclophilin cDNAs was performed using the RNA Ultrasense kit (Invitrogen) and a ViiA7 real-time PCR machine (Applied Biosystems). IC50 values were determined from a dose response curve.

[3] = biological target: T2, Brd4 bromodomain 1 (BRD4(1)) (Homo sapiens, UniProt O60885); test: Inhibition of tetra-acetylated histone H4 binding to Brd4 bromodomain 1 (TR-FRET); conditions: tetra-acetylated histone H4 peptide, active = IC50 <30 μM
T2 construct: Illustrative results with the first bromodomain of Brd4; made in house; host or cells: E. coli BL21 (DE3)
Outline: as §1

Row | Structure (SMILES) | FRET activity (IC50 <30 μM) BRD2(2) [1] | Cell Proliferation activity (IC50 <30 μM) [2] | IL-6 activity (IC50 <30 μM) (hIL-6 mRNA) | c-myc activity (IC50 <30 μM) (c-myc) | FRET activity (IC50 <30 μM) BRD4(1) [3]
1 | Cc1noc(C)c1-c1ccc(=O)n(CCc2ccccc2)n1 [Example 1, 6-(3,5-Dimethylisoxazol-4-yl)-2-phenethylpyridazin-3(2H)-one] | Active | Not Active | Not Active | Not Active | Active
2 | Cc1noc(C)c1-c1ccc(=O)n(Cc2cccc(C(F)(F)F)c2)c1 [Example 4, 5-(3,5-Dimethylisoxazol-4-yl)-1-(3-(trifluoromethyl)benzyl)pyridin-2(1H)-one] | Active | Active | Active | Active | Active
3 | Cc1noc(C)c1-c1cc(N)c(=O)n(Cc2ccc(N3CCC3)cc2)c1 [Example 237, 3-Amino-1-(4-(azetidin-1-yl)benzyl)-5-(3,5-dimethylisoxazol-4-yl)pyridin-2(1H)-one] |  | Active | Active | Active | Active
4 | Cc1cc(Cn2cc(-c3c(C)noc3C)cc(N)c2=O)on1 [Example 240, 3-amino-5-(3,5-dimethylisoxazol-4-yl)-1-((3-methylisoxazol-5-yl)methyl)pyridin-2(1H)-one] |  | Active | Active | Active | Active
5 | Cc1noc(C)c1-c1cc(N)c(=O)n(Cc2ccc(C(C)C)cc2)c1 [Example 242, 3-Amino-5-(3,5-dimethylisoxazol-4-yl)-1-(4-isopropylbenzyl)pyridin-2(1H)-one] |  | Active | Active | Active | Active
6 | Cc1noc(C)c1-c1cc(N)c(=O)n(Cc2cncc(Cl)c2)c1 [Example 252, 3-amino-1-((5-chloropyridin-3-yl)methyl)-5-(3,5-dimethylisoxazol-4-yl)pyridin-2(1H)-one] |  | Active | Active | Active | Active
7 | Cc1noc(C)c1-c1cc(N)c(=O)n(Cc2ncccc2Cl)c1 [Example 254, 3-amino-1-((3-chloropyridin-2-yl)methyl)-5-(3,5-dimethylisoxazol-4-yl)pyridin-2(1H)-one] |  | Active | Active | Active | Active
8 | Cc1noc(C)c1-c1cc(N)c(=O)n(C(C)c2ccccc2)c1 (stereo not shown) [Example 263, 3-amino-5-(3,5-dimethylisoxazol-4-yl)-1-(1-phenylethyl)pyridin-2(1H)-one] |  | Active | Active | Active | Active
9 | Cc1noc(C)c1-c1cc(N)c(=O)n(Cc2ccc(C#N)s2)c1 [Example 264, 5-((3-amino-5-(3,5-dimethylisoxazol-4-yl)-2-oxopyridin-1(2H)-yl)methyl)thiophene-2-carbonitrile] |  | Active | Active | Active | Active
10 | Cc1noc(C)c1-c1cc(N)c(=O)n(Cc2c[nH]c3ccccc23)c1 [Example 270, 1-((1H-indol-3-yl)methyl)-3-amino-5-(3,5-dimethylisoxazol-4-yl)pyridin-2(1H)-one] |  | Active | Active | Active | Active
11 | Cc1noc(C)c1-c1cc(N)c(=O)n(Cc2ccc(Br)c(C#N)c2)c1 [Example 272, 5-((3-amino-5-(3,5-dimethylisoxazol-4-yl)-2-oxopyridin-1(2H)-yl)methyl)-2-bromobenzonitrile] |  | Active | Active | Active | Active
12 | Cc1noc(C)c1-c1cc(N)c(=O)n(Cc2ccc(C#N)c(Br)c2)c1 [Example 273, 4-((3-amino-5-(3,5-dimethylisoxazol-4-yl)-2-oxopyridin-1(2H)-yl)methyl)-2-bromobenzonitrile] |  | Active | Active | Active | Active

Next, values leading:

Row | FRET activity (IC50 <30 μM) BRD2(2) [1] | Cell Proliferation activity (IC50 <30 μM) [2] | IL-6 activity (IC50 <30 μM) (hIL-6 mRNA) | c-myc activity (IC50 <30 μM) (c-myc) | FRET activity (IC50 <30 μM) BRD4(1) [3] | Structure (SMILES)
13 |  | Active | Active | Active | Active | Cc1noc(C)c1-c1cc(N)c(=O)n(Cc2ccc(N3CCOCC3)cc2)c1 [Example 238, 3-Amino-5-(3,5-dimethylisoxazol-4-yl)-1-(4-morpholinobenzyl)pyridin-2(1H)-one]
14 |  | Active | Active | Active | Active | Cc1cc(Cn2cc(-c3c(C)noc3C)cc(N)c2=O)c(C)s1 [Example 251, 3-amino-5-(3,5-dimethylisoxazol-4-yl)-1-((2,5-dimethylthiophen-3-yl)methyl)pyridin-2(1H)-one]
15 |  | Active | Active | Active | Active | Cc1noc(C)c1-c1cc(N)c(=O)n(Cc2ccc3c(c2)OCO3)c1 [Example 256, 3-amino-1-(benzo[d][1,3]dioxol-5-ylmethyl)-5-(3,5-dimethylisoxazol-4-yl)pyridin-2(1H)-one]
16 |  | Active | Active | Active | Active | Cc1noc(C)c1-c1cc(N)c(=O)n(Cc2ccc(I)cc2)c1 [Example 267, 3-amino-5-(3,5-dimethylisoxazol-4-yl)-1-(4-iodobenzyl)pyridin-2(1H)-one]
17 |  | Active | Active | Active | Active | Cc1noc(C)c1-c1cc(N)c(=O)n(Cc2cccc3ncccc23)c1 [Example 274, 3-amino-5-(3,5-dimethylisoxazol-4-yl)-1-(quinolin-5-ylmethyl)pyridin-2(1H)-one]
